Read-outs that look alike come from different tables or passages of the source.
Key:
human HDAC8 = human HDAC8 (Homo sapiens (Human), UniProt Q9BY41); experiment: HDAC8 inhibition assay (modified FLUOR DE LYS, 384-well); assay type: biochemical; conditions: […] enzyme, 200 μM substrate BML-KI178, 3 h pre-incubation; read-out: HDAC8 IC50
Protocol: (§1) The histone deacetylase activities of HDAC1, HDAC2, HDAC3, HDAC6, and HDAC8 were measured in modified FLUOR DE LYS assays in 384-well format. In this assay, HDAC enzymes are initially incubated with an F-acetyl (or -trifluoroacetyl)-L-lysine-containing substrate with a C-terminal amide having aminomethylcoumarin as the amine component. HDACs cleave the F-acetyl group, rendering the resulting product susceptible to AMC cleavage by trypsin. The released AMC is then detected by its fluorescence. […] All steps were performed at room temperature (23° C.). The assay was performed by pre-incubating serial dilutions of test compounds with the target HDAC prior to initiation with substrate. […] Final conditions used for each assay were: 1. […] The reactions were stopped and developed by addition of 30 ul of HDAC developer solution containing a saturating level of HDAC inhibitor as follows: 1. […] For data analysis, background subtracted product (fluorescence) vs. time data for each inhibitor concentration was fitted using a 4-parameter fit.

HDAC6 = HDAC6 (Homo sapiens (Human), UniProt Q9UBN7)
Protocol: as §1

KARN cells (Jurkat 2C4) = experiment: cells; conditions: Homo sapiens
human HDAC2 = human HDAC2 (Homo sapiens (Human), UniProt Q92769); experiment: HDAC2 inhibition assay (modified FLUOR DE LYS, 384-well); assay type: biochemical; conditions: […] enzyme, 40 μM substrate BML-KI104, 3 h pre-incubation; read-out: HDAC2 IC50
human HDAC1 = human HDAC1 (Homo sapiens (Human), UniProt Q13547)
[1] = molecular target: human HDAC3/SMRT heterodimer (Homo sapiens (Human), UniProt O15379)
[2] = read-out: Karn EC50 nM 0.1% NHS, 0.1% normal human serum, luciferase induction, 2 μM SAHA = 100%
[3] = read-out: Karn EC50 nM 5% NHS, 5% normal human serum, luciferase induction, 2 μM SAHA = 100%

Chain of human HDAC2 (Q92769 whole entry): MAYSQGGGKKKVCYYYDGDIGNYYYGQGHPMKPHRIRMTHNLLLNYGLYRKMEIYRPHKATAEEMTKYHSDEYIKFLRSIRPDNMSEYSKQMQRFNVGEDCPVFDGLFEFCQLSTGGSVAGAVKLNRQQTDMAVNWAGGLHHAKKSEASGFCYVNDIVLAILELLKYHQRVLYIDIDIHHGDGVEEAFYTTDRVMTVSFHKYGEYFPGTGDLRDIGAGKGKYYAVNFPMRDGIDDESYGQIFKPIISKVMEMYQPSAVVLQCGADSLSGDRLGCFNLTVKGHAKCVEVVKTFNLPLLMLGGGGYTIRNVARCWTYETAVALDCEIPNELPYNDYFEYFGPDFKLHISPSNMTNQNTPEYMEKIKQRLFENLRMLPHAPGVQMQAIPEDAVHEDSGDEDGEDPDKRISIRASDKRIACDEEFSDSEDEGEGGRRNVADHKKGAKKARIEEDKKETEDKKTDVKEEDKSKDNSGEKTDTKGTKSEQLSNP
Chain of human HDAC1 (Q13547 whole entry): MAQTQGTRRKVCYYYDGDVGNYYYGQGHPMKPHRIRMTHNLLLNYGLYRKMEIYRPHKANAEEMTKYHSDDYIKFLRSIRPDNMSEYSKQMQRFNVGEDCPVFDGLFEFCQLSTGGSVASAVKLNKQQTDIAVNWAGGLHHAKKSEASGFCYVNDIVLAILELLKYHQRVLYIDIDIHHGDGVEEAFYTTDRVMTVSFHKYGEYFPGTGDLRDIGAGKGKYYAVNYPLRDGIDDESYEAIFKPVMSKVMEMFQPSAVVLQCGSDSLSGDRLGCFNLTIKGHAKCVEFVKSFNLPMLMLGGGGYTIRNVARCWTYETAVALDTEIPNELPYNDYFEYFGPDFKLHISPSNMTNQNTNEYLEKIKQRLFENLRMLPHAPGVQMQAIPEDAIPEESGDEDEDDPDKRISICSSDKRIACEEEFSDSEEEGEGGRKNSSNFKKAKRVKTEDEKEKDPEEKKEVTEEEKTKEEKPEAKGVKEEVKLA
Chain of HDAC6 (Q9UBN7 whole entry): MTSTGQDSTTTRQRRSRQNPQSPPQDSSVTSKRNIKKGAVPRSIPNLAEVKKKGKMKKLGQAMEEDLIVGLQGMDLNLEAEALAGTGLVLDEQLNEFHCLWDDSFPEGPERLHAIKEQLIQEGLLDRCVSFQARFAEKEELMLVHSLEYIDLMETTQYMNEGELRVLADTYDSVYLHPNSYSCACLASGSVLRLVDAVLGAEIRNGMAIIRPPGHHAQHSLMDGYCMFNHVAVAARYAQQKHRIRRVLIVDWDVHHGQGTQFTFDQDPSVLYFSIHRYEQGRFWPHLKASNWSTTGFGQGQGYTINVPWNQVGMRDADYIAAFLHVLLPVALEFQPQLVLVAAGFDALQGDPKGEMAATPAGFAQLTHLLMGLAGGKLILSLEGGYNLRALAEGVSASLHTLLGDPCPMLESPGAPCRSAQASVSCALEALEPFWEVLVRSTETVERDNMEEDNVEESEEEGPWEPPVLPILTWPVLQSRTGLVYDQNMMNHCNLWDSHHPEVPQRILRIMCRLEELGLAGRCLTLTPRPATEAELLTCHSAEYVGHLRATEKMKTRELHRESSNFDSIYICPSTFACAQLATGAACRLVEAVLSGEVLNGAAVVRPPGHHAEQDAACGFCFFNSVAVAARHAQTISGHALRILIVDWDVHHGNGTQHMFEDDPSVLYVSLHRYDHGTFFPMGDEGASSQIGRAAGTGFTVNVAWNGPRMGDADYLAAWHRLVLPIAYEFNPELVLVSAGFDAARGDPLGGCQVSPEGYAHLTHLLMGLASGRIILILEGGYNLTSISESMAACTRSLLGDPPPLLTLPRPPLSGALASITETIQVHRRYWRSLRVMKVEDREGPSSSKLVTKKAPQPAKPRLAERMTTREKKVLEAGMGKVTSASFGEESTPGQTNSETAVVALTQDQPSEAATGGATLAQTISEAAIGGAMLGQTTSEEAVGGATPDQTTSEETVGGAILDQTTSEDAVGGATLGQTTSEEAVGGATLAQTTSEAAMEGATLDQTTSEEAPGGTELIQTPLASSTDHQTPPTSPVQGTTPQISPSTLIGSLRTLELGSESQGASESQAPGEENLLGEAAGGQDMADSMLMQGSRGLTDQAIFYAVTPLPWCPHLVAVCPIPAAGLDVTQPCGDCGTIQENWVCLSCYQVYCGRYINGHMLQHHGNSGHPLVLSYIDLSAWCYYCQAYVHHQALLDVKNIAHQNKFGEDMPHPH
Chain of human HDAC8 (Q9BY41 whole entry): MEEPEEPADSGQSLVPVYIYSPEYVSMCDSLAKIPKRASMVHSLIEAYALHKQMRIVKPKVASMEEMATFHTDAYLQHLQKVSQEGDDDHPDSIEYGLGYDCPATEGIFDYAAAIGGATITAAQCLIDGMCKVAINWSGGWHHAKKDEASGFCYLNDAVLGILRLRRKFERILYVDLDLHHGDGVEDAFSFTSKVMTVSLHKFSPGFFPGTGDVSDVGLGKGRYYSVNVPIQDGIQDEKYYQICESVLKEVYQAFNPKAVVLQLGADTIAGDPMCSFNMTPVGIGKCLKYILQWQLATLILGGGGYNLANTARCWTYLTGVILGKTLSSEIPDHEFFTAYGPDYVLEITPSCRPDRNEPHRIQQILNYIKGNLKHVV
Chain of human HDAC3/SMRT heterodimer (O15379 whole entry): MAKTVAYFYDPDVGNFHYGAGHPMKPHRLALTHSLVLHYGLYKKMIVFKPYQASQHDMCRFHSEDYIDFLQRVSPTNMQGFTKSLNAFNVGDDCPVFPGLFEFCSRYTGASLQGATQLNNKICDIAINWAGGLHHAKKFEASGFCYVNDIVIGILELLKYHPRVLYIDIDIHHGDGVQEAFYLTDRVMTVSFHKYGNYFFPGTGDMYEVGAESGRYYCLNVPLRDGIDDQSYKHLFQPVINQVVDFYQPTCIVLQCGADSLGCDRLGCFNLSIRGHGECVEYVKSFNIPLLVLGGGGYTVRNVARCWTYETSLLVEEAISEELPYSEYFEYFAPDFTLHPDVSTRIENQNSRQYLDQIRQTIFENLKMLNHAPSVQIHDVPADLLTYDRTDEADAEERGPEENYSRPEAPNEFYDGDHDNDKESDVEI
Chain of human HDAC3/SMRT heterodimer (Q9Y618 1-899 partner): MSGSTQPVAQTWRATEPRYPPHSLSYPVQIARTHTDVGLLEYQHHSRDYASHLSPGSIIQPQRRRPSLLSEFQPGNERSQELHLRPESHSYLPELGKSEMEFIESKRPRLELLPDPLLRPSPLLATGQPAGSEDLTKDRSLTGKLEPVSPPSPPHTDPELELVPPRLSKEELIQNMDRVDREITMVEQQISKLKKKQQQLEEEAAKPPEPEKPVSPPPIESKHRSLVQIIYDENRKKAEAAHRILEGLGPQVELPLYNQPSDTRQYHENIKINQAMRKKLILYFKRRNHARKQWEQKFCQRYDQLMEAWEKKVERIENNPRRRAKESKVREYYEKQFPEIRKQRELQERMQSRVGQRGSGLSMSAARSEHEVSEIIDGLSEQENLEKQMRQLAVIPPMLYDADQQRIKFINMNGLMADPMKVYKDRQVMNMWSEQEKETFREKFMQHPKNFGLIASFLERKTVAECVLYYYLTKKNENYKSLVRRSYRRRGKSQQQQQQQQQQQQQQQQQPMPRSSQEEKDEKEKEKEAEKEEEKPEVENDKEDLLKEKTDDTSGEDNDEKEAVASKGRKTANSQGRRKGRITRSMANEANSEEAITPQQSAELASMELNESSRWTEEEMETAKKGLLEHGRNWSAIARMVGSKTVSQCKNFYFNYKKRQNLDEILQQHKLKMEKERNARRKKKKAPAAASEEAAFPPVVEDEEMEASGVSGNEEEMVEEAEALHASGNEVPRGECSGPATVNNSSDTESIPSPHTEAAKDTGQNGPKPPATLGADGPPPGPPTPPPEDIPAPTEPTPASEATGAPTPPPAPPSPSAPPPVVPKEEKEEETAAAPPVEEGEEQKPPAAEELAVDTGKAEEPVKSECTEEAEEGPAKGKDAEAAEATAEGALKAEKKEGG

SMILES	IC50 (human HDAC8) [nM]	IC50 (HDAC6) [nM]	EC50 (KARN cells (Jurkat 2C4); [2]) [nM]	EC50 (KARN cells (Jurkat 2C4); [3]) [nM]	IC50 (human HDAC2) [nM]	IC50 (human HDAC1) [nM]	IC50 [1] [nM]
N[C@@H](CCCCCC(=O)c1ncco1)c1ncc(-c2cc(F)ccc2F)[nH]1 [Example 135, (7S)-7-amino-7-[5-(2,5-difluorophenyl)-1H-imidazol-2-yl]-1-(1,3-oxazol-2-yl)heptan-1-one]	> 900	> 900	5600	13000			
Cn1cc2cc(-n3ccc([C@H](N)CCCCCC(=O)c4ncco4)n3)ccc2n1 [Example 127, (7R)-7-amino-7-[1-(2-methyl-2H-indazol-5-yl)-1H-pyrazol-3-yl]-1-(1,3-oxazol-2-yl)heptan-1-one]					2600	480	770
COc1cc2nc(C)ccc2cc1-c1cnc([C@H](CCCCCC(=O)c2ncco2)NC2CCOCC2)[nH]1 [Example 80, (S)-7-(5-(7-methoxy-2-methylquinolin-6-yl)-1H-imidazol-2-yl)-1-(oxazol-2-yl)-7-((tetrahydro-2H-pyran-4-yl)amino)heptan-1-one]	3500	15000	550	680	10		5.7
COc1nc2ccccc2cc1-c1cnc([C@H](CCCCCC(=O)c2ncco2)NC(=O)c2nc3ccccc3o2)[nH]1 [Example 153, N-[(1S)-1-[5-(2-methoxyquinolin-3-yl)-1H-imidazol-2-yl]-7-(1,3-oxazol-2-yl)-7-oxoheptyl]-1,3-benzoxazole-2-carboxamide]	167		100	560	15	8.5	4.2
Cc1cc(C(=O)CCCCC[C@H](NC(=O)CN(C)C)c2nc(-c3ccccc3F)c[nH]2)no1 [Example 48]		45000	28	69	1	0.18	0.15
CN1CCC1C(=O)N[C@@H](CCCCCC(=O)c1ccon1)c1ncc(-c2ccccc2F)[nH]1 (stereo partly shown) [Example 60]	1.7	> 900	4.2	9	0.41	0.13	
COc1nc2ccccc2cc1-c1cnc([C@H](CCCCCC(=O)c2ncco2)NC(=O)[C@@H]2CCC(=O)N2)[nH]1 [Example 157, N-[(1S)-1-[5-(2-methoxyquinolin-3-yl)-1H-imidazol-2-yl]-7-(1,3-oxazol-2-yl)-7-oxoheptyl]-5-oxo-L-prolinamide]			77	380	4.1	0.64	1
N[C@@H](CCCCCC(=O)c1ncco1)c1ncc(-c2ccc(OC(F)(F)F)cc2F)[nH]1 [Example 141, (7S)-7-amino-7-{5-[2-fluoro-4-(trifluoromethoxy)phenyl]-1H-imidazol-2-yl}-1-(1,3-oxazol-2-yl)heptan-1-one]	> 900	> 900	2400	3500			
NC(CCCCCC(=O)c1ccon1)c1cnn(-c2ccc(F)cc2)c1 (stereo not shown) [Example 121, 7-amino-7-[1-(4-fluorophenyl)-1H-pyrazol-4-yl]-1-isoxazol-3-ylheptan-1-one]		45000				15	14
COc1nc2ccccc2cc1-c1cnc([C@H](CCCCCC(=O)c2ncco2)NC(=O)CN2CCCC2)[nH]1 [Example 52]	44		23	81	2.5	0.56	1.1
COc1nc2ccccc2cc1-c1cnc([C@H](CCCCCC(=O)c2ncco2)NC(=O)c2ccc(OC(F)F)nc2)[nH]1 [Example 146, 6-(difluoromethoxy)-N-[(1S)-1-[5-(2-methoxyquinolin-3-yl)-1H-imidazol-2-yl]-7-(1,3-oxazol-2-yl)-7-oxoheptyl]pyridine-3-carboxamide]	96		130	440	16	5.3	2.3
COc1nc2ccccc2cc1-c1cnc([C@H](CCCCCC(=O)c2ncco2)NC(=O)CN2CCOCC2)[nH]1 [Example 54]	88		76	680	6.3	2	1.5
COc1nc2ccccc2cc1-c1cnc([C@H](CCCCCC(=O)c2ncco2)NC(=O)c2cc3n(n2)CCCC3)[nH]1 [Example 154]	110		120	570	20	5.1	2
COc1nc2ccccc2cc1-c1cnc([C@H](CCCCCC(=O)c2ncco2)NC(=O)C2(c3ccncc3)CC2)[nH]1 [Example 151, N-[(1S)-1-[5-(2-methoxyquinolin-3-yl)-1H-imidazol-2-yl]-7-(1,3-oxazol-2-yl)-7-oxoheptyl]-1-pyridin-4-ylcyclopropanecarboxamide]	57		68	790	7.8	2	1.5
COc1cc2nc(C)ccc2cc1-c1cnc([C@H](CCCCCC(=O)c2ncco2)NC(=O)Cn2cccn2)[nH]1 [Example 160, N-[(1S)-1-[5-(7-methoxy-2-methylquinolin-6-yl)-1H-imidazol-2-yl]-7-(1,3-oxazol-2-yl)-7-oxoheptyl]-2-(1H-pyrazol-1-yl)acetamide]	71	> 900	48	120	5.5		0.54
N[C@@H](CCCCCC(=O)c1ncco1)c1ncc(-c2cnc(C3CC3)cn2)[nH]1 [Example 131, (7S)-7-amino-7-[5-(5-cyclopropylpyrazin-2-yl)-1H-imidazol-2-yl]-1-(1,3-oxazol-2-yl)heptan-1-one]	> 900	> 900	1300	1500	23		9
COc1nc2ccccc2cc1-c1cnc([C@H](CCCCCC(=O)c2ncco2)NC(=O)[C@H]2CCC(=O)N2)[nH]1 [Example 156, N-[(1S)-1-[5-(2-methoxyquinolin-3-yl)-1H-imidazol-2-yl]-7-(1,3-oxazol-2-yl)-7-oxoheptyl]-5-oxo-D-prolinamide]			88	420	5.4	1.1	1.1
NC(CCCCCC(=O)c1ccon1)c1cnn(-c2ccc(F)cc2)c1 (stereo not shown) [Example 122, 7-amino-7-[1-(4-fluorophenyl)-1H-pyrazol-4-yl]-1-isoxazol-3-ylheptan-1-one]						500	570
COc1cc2nc(C)ccc2cc1-c1cnc([C@H](CCCCCC(=O)c2ncco2)NC(=O)c2cc3n(n2)CCCC3)[nH]1 [Example 164]		> 900	85	290	18	3.3	0.87
COc1nc2ccccc2cc1-c1cnc([C@H](CCCCCC(=O)c2ncco2)NC(=O)CCCN(C)C)[nH]1 [Example 55]		140	12	32	2.1	0.3	0.48
CCN[C@@H](CCCCCC(=O)c1ncco1)c1ncc(-c2cc3ccc(=O)n(C)c3cc2OC)[nH]1 [Example 77, (S)-6-(2-(1-(ethylamino)-7-(oxazol-2-yl)-7-oxoheptyl)-1H-imidazol-5-yl)-7-methoxy-1-methylquinolin-2(1H)-one]	> 900	> 900	120	120			
COc1nc2ccccc2cc1-c1cnc([C@H](CCCCCC(=O)c2ncco2)NC(=O)C2(c3cnccn3)CC2)[nH]1 [Example 155, N-[(1S)-1-[5-(2-methoxyquinolin-3-yl)-1H-imidazol-2-yl]-7-(1,3-oxazol-2-yl)-7-oxoheptyl]-1-pyrazin-2-ylcyclopropanecarboxamide]	53		50	600	5.3	0.81	1.3
COc1cc2nc(C)ccc2cc1-c1cnc([C@H](CCCCCC(=O)c2ncco2)NC(=O)CN2CCNCC2=O)[nH]1 [Example 159, N-[(1S)-1-[5-(7-methoxy-2-methylquinolin-6-yl)-1H-imidazol-2-yl]-7-(1,3-oxazol-2-yl)-7-oxoheptyl]-2-(2-oxopiperazin-1-yl)acetamide]		2900	1500	2900	5.8	0.82	1.7
N[C@@H](CCCCCC(=O)c1ccon1)c1cc(-c2ccc(F)cc2)on1 [Example 118, (S)-7-amino-7-(5-(4-fluorophenyl)isoxazol-3-yl)-1-(isoxazol-3-yl)heptan-1-one]	300	45000	780	1600	8	2.4	
CN1CC(C(=O)N[C@@H](CCCCCC(=O)c2ncco2)c2nc(-c3ccc(F)cc3)c[nH]2)C1 [Example 1, (S)-N-(1-(4-(4-fluorophenyl)-1H-imidazol-2-yl)-7-(oxazol-2-yl)-7-oxoheptyl)-1-methylazetidine-3-carboxamide]		45000				1.1	
N[C@H](CCCCCC(=O)c1ccon1)c1cc(-c2ccc(F)cc2)on1 [Example 119, (R)-7-amino-7-(5-(4-fluorophenyl)isoxazol-3-yl)-1-(isoxazol-3-yl)heptan-1-one]	260	45000	10000		420	96	
